From patent US20250115600A1, “COVALENT MODIFIERS OF AKT1 AND USES THEREOF” (Terremoto Biosciences, Inc., priority 2022, published 2025)

Experiments:
AKT1 E17K mutant protein = AKT1 E17K mutant protein (Homo sapiens (Human), UniProt P31749, E17K); experiment: Intact mass spectrometry, covalent complex formation and ARQ-092 competition; assay type: binding; details: for covalent complex formation with AKT1 E17K mutant protein / covalent complex formation with AKT1 E17K mutant protein in presence of competitor: protein 1 μM, compound 1.5 μM, 2 hrs at 37° C., NaBH4 reduction; for covalent complex formation with AKT1 E17K mutant protein: absence of competitor; for covalent complex formation with AKT1 E17K mutant protein in presence of competitor: with ARQ092 (50 μM); for selectivity of complex formation, AKT1 E17K versus AKT1 WT: comparison of the spectra without competitor
Sequence of AKT1 E17K mutant protein (P31749 2-480 E17K): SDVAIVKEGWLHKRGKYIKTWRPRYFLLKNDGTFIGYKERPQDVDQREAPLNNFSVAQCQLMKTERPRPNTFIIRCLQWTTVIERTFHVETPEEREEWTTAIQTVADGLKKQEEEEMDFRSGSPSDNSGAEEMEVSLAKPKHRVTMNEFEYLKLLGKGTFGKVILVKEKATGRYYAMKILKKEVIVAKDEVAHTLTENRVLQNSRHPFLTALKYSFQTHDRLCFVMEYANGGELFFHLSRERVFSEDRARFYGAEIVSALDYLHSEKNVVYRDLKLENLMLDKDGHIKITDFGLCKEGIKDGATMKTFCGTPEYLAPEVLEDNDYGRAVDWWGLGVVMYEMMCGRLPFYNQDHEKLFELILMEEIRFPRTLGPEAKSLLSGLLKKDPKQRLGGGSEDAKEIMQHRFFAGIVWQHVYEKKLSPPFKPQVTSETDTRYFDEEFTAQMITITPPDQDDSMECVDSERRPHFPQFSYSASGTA
Procedure: (§1) AKT1 WT or AKT1 E17K (1 μM) was treated with a compound from Table 1 (1.5 μM) for 2 hrs at 37° C., with and without ARQ092 (50 μM) competitor as a specificity control. Reversible imines were captured by reductive amination with 5 mM NaBH4 for 5 min. Reduction reactions were quenched by diluting the sample in equal volume acetonitrile+1% TFA, then analyzed by LCMS.
(§2) FIGS. 1 to 25 provide intact mass spectra for AKT1 WT protein and AKT1 E17K mutant protein after incubation with compounds of the present disclosure and subsequent borohydride reduction. […] Further, FIGS. 1 to 10, 12, and 14 to 25 each provide intact mass spectra following the incubation of an AKT1 protein with a compound of the present disclosure both in the absence of a competitor molecule (i.e., ARQ-092, a molecule known to bind to and inhibit the function of AKT1); and in the presence of a significant stoichiometric excess of a competitor molecule.

AKT1 WT [1] = target: T1, AKT1 WT (Homo sapiens (Human), UniProt P31749); experiment: as above; assay type: binding; details: protein 1 μM, compound 1.5 μM, 2 hrs at 37° C., NaBH4 reduction; for covalent complex formation with AKT1 WT protein: absence of competitor; for covalent complex formation with AKT1 WT protein in presence of competitor: with ARQ092 (50 μM)
Procedure: as §1, §2
Target sequence in this assay (P31749 2-480): as the sequence (P31749 2-480 E17K) above, with K16E counted along it

AKT1 E17K = AKT1 E17K (Homo sapiens (Human), UniProt P31749, E17K); experiment: Live cell target engagement (NanoBRET) in HEK293 cells; assay type: cell-based; details: for IC50: HEK293, 2 hours at 37° C.
Sequence of AKT1 E17K (P31749 whole entry E17K): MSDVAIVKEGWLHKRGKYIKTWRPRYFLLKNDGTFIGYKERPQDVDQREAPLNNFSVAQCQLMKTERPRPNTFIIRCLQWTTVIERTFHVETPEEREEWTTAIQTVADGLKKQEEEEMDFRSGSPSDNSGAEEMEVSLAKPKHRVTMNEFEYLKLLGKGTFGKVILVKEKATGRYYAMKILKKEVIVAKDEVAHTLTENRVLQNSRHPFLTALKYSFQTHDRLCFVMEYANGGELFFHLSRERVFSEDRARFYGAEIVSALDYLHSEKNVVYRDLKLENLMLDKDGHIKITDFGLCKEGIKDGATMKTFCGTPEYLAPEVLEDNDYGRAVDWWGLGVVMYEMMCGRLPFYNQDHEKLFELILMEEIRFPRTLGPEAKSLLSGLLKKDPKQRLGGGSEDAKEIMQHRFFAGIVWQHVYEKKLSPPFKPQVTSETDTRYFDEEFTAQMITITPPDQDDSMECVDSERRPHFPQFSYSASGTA

AKT1 WT [2] = target: T1, AKT1 WT; experiment: as above; assay type: cell-based; details: HEK293, 2 hours at 37° C.
Target sequence in this assay (P31749 whole entry): as the sequence (P31749 whole entry E17K) above, with K17E counted along it

AKT2 = AKT2 (Homo sapiens (Human), UniProt P31751); experiment: as above; assay type: cell-based; details: HEK293, 2 hours at 37° C.
Sequence of AKT2 (P31751 whole entry): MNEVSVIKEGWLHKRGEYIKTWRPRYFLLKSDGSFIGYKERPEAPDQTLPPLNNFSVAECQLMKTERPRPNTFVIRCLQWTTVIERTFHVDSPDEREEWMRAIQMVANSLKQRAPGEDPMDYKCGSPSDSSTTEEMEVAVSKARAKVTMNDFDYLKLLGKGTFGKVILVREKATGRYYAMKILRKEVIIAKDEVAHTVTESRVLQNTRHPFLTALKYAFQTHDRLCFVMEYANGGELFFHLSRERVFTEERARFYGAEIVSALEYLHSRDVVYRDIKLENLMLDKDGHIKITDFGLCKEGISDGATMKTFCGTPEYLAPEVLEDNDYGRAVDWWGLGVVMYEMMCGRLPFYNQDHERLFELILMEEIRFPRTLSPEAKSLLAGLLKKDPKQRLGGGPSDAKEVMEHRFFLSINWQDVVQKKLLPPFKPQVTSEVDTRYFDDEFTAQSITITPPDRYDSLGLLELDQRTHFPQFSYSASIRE

| Structure (SMILES) | covalent complex formation with AKT1 WT protein (AKT1 WT [1]) | AKT1 E17K IC50: Selectivity vs AKT1 WT (AKT1 E17K) | AKT1 E17K IC50: Selectivity vs AKT2 (AKT1 E17K) | IC50 (AKT1 E17K) | IC50 (AKT1 WT [2]) | IC50 (AKT2) | covalent complex formation with AKT1 E17K mutant protein (AKT1 E17K mutant protein) | covalent complex formation with AKT1 E17K mutant protein in presence of competitor (AKT1 E17K mutant protein) | covalent complex formation with AKT1 WT protein in presence of competitor (AKT1 WT [1]) | selectivity of complex formation, AKT1 E17K versus AKT1 WT (AKT1 E17K mutant protein) |
| --- | --- | --- | --- | --- | --- | --- | --- | --- | --- | --- |
| Nc1ncccc1-c1nc2ccc(-c3ccccc3)nc2n1-c1ccc(CNC(=O)c2cc(F)c(O)c(C=O)c2)cc1 [Compound 53, N-({4-[2-(2-aminopyridin-3-yl)-5-phenylimidazo[4,5-b]pyridin-3-yl]phenyl}methyl)-3-fluoro-5-formyl-4-hydroxybenzamide] | only peaks corresponding to unmodified WT protein | 2.7 | 48 | < 100 nM | < 100 nM | 100 to 500 nM | presence of a covalent complex | Essentially no covalent complex formation | only peaks corresponding to unmodified WT protein | selective for complex formation with AKT1 E17K |
| Nc1ncccc1-c1nc2ccc(-c3ccccc3)nc2n1-c1ccc(CC(=O)NCc2ccc(C=O)c(O)c2)cc1 [Compound 58, 2-{4-[2-(2-aminopyridin-3-yl)-5-phenylimidazo[4,5-b]pyridin-3-yl]phenyl}-N-[(4-formyl-3-hydroxyphenyl)methyl]acetamide] | presence of a covalent complex | 8.6 | 410 | < 100 nM | < 100 nM | > 500 nM | significant presence of a covalent complex | Essentially no covalent complex formation | Essentially no covalent complex formation | – |
| Nc1ncccc1-c1nc2ccc(N3CCOCC3)nc2n1-c1ccc(CNC(=O)Cc2ccc(C=O)c(O)c2)cc1 [Compound 49, N-({4-[2-(2-aminopyridin-3-yl)-5-(morpholin-4-yl)imidazo[4,5-b]pyridin-3-yl]phenyl}methyl)-2-(4-formyl-3-hydroxyphenyl)acetamide] | significant presence of covalent complex | 20 | 1500 | < 100 nM | < 100 nM | > 500 nM | significant presence of a covalent complex | Essentially little to no covalent complex formation | Essentially no covalent complex formation | – |
| Nc1ncccc1-c1nc2ccc(-c3ccccc3)nc2n1-c1ccc(CNCCc2ccc(C=O)c(O)c2F)cc1 [Compound 122, 4-{2-[({4-[2-(2-aminopyridin-3-yl)-5-phenylimidazo[4,5-b]pyridin-3-yl]phenyl}methyl)amino]ethyl}-3-fluoro-2-hydroxybenzaldehyde] | presence of covalent complex | 1.3 | 3.2 | < 100 nM | < 100 nM | < 100 nM | presence of covalent complex | Essentially no covalent complex formation | Essentially no covalent complex formation | – |
| Nc1ncccc1-c1nc2ccc(-c3ccccc3)nc2n1-c1ccc(CNC(=O)c2cc(Cl)c(O)c(C=O)c2)cc1 [Compound 52, N-(4-(2-(2-aminopyridin-3-yl)-5-phenyl-3H-imidazo[4,5-b]pyridin-3-yl)benzyl)-3-chloro-5-formyl-4-hydroxybenzamide] | only peaks corresponding to unmodified WT protein | 1.2 | 11 | < 100 nM | < 100 nM | 100 to 500 nM | presence of a covalent complex | Essentially no covalent complex formation | only peaks corresponding to unmodified WT protein | selective for complex formation with AKT1 E17K |

Continued, in another order:

| covalent complex formation with AKT1 WT protein (AKT1 WT [1]) | AKT1 E17K IC50: Selectivity vs AKT1 WT (AKT1 E17K) | AKT1 E17K IC50: Selectivity vs AKT2 (AKT1 E17K) | IC50 (AKT1 E17K) | IC50 (AKT1 WT [2]) | IC50 (AKT2) | Structure (SMILES) | covalent complex formation with AKT1 E17K mutant protein (AKT1 E17K mutant protein) | covalent complex formation with AKT1 E17K mutant protein in presence of competitor (AKT1 E17K mutant protein) | covalent complex formation with AKT1 WT protein in presence of competitor (AKT1 WT [1]) | selectivity of complex formation, AKT1 E17K versus AKT1 WT (AKT1 E17K mutant protein) |
| --- | --- | --- | --- | --- | --- | --- | --- | --- | --- | --- |
| presence of a covalent complex | 1.4 | 10 | < 100 nM | < 100 nM | 100 to 500 nM | Nc1ncccc1-c1nc2ccc(N3CCOCC3)nc2n1-c1ccc(C2(NC(=O)Cc3ccc(C=O)c(O)c3F)CC2)cc1 [Compound 140, N-(1-{4-[2-(2-aminopyridin-3-yl)-5-(morpholin-4-yl)imidazo[4,5-b]pyridin-3-yl]phenyl}cyclopropyl)-2-(2-fluoro-4-formyl-3-hydroxyphenyl)acetamide] | significant presence of a covalent complex | Essentially no covalent complex formation | Essentially no covalent complex formation | – |
| presence of covalent complex | 3.2 | 23 | < 100 nM | < 100 nM | 100 to 500 nM | Nc1ncccc1-c1nc2ccc(-c3ccccc3)nc2n1-c1ccc(CNC(=O)Cc2ccc(C=O)c(O)c2)cc1 [Compound 132, N-(4-(2-(2-aminopyridin-3-yl)-5-phenyl-3H-imidazo[4,5-b]pyridin-3-yl)benzyl)-2-(4-formyl-3-hydroxyphenyl)acetamide] | presence of covalent complex | Essentially no covalent complex formation | Essentially no covalent complex formation | – |
| presence of a covalent complex | 2 | 6 | < 100 nM | < 100 nM | < 100 nM | Nc1ncccc1-c1nc2ccc(-c3cccc(N4CCOCC4)c3)nc2n1-c1ccc(CNC(=O)c2ccc(O)c(C=O)c2)cc1 [Example 20, N-(4-(2-(2-aminopyridin-3-yl)-5-(3-morpholinophenyl)-3H-imidazo[4,5-b]pyridin-3-yl)benzyl)-3-formyl-4-hydroxybenzamide] | significant presence of a covalent complex | Essentially no covalent complex formation | Essentially no covalent complex formation | selective for complex formation with AKT1 E17K |
